Experimental data from patent US8247211B2, “Glycopeptide antibiotics” (American Cyanamid Company, priority 2001, dated 2012).
Values after ≈ are worked out from the molar mass of the structure shown.

Columns and labels:
Experiment in all cases: In vitro antibacterial evaluation: minimum inhibitory concentration (MIC), broth dilution method
Assay type in all cases: cell-based
Staphylococcus sp. = conditions: 18 hours at 35° C.
Method: (§1) The minimum inhibitory concentration (MIC), the lowest concentration of the antibiotic which inhibits growth of the test organism, is determined by the broth dilution method using Muller-Hinton II […] (Baltimore Biological Laboratories) following the recommendations of the National Committee for Clinical Laboratory Standards [Methods for dilution antimicrobial susceptibility tests for bacteria that grow aerobically, approved standard M7-A2, National Committee for Clinical Laboratory Standards, Villanova, Pa].
(§2) An inoculum level of 5×10^5 CFU/mL, and a range of antibiotic concentrations (64-0.06 μg/mL) is used. […] The test organisms include a spectrum of Gram-positive bacteria comprised of Staphylococcus sp., Streptococcus sp. and Enterococcus sp. These organisms include recent clinical isolates that are resistant to methicillin, penicillin and/or vancomycin.

Enterococcus sp. = conditions: Enterococcus faecium (GC 4557)
Method: as §1, §2

Escherichia coli = Escherichia coli (GC 4560)
Method: as §1, §2

MIC Coagulase Negative Staphylococcus (GC 4547) (Staphylococcus sp.) [µg/mL]	MIC Coagulase Negative Staphylococcus (GC 4547) (Staphylococcus sp.; broth dilution) [µg/mL]	MIC Coagulase Negative Staphylococcus (GC 4548) (Staphylococcus sp.) [µg/mL]	MIC Coagulase Negative Staphylococcus (GC 4548) (Staphylococcus sp.; broth dilution) [µg/mL]	MIC Coagulase Negative Staphylococcus (GC 4549) (Staphylococcus sp.) [µg/mL]	MIC Coagulase Negative Staphylococcus (GC 4549) (Staphylococcus sp.; broth dilution) [µg/mL]	MIC Coagulase Negative Staphylococcus (GC 4551) (Staphylococcus sp.) [µg/mL]	MIC Coagulase Negative Staphylococcus (GC 4551) (Staphylococcus sp.; broth dilution) [µg/mL]	MIC Staphylococcus aureus (ATCC 29213) (Staphylococcus sp.) [µg/mL]	MIC Staphylococcus aureus (ATCC 29213) (Staphylococcus sp.; broth dilution) [µg/mL]	MIC Staphylococcus aureus (GC 1131) (Staphylococcus sp.) [µg/mL]	MIC Staphylococcus aureus (GC 1131) (Staphylococcus sp.; broth dilution) [µg/mL]	MIC Staphylococcus aureus (GC 3051) (Staphylococcus sp.) [µg/mL]	MIC Staphylococcus aureus (GC 3051) (Staphylococcus sp.; broth dilution) [µg/mL]	MIC Staphylococcus aureus (GC 4541) (Staphylococcus sp.) [µg/mL]	MIC Staphylococcus aureus (GC 4541) (Staphylococcus sp.; broth dilution) [µg/mL]	MIC Staphylococcus aureus (GC 4542) (Staphylococcus sp.) [µg/mL]	MIC Staphylococcus aureus (GC 4542) (Staphylococcus sp.; broth dilution) [µg/mL]	MIC Staphylococcus aureus (GC 4544) (Staphylococcus sp.) [µg/mL]	MIC Staphylococcus aureus (GC 4544) (Staphylococcus sp.; broth dilution) [µg/mL]	Compound	further results
64 (≈ 47.4 µM)	64 (≈ 47.4 µM)	64 (≈ 47.4 µM)	64 (≈ 47.4 µM)	32 (≈ 23.7 µM)	32 (≈ 23.7 µM)	64 (≈ 47.4 µM)	64 (≈ 47.4 µM)	64 (≈ 47.4 µM)	64 (≈ 47.4 µM)	64 (≈ 47.4 µM)	64 (≈ 47.4 µM)	64 (≈ 47.4 µM)	64 (≈ 47.4 µM)	64 (≈ 47.4 µM)	64 (≈ 47.4 µM)	64 (≈ 47.4 µM)	64 (≈ 47.4 µM)	64 (≈ 47.4 µM)	64 (≈ 47.4 µM)	CC(C)C(=O)OCC1OC(OC2C(CO)OC(Oc3ccc(CC4NC(=O)C(Cc5ccccc5)NC(=O)CNC(=O)C(CO)NC(=O)C(C(O)C5CNC(=N)N5C5OC(CO)C(O)C(O)C5O)NC(=O)C(C(O)C5CNC(=N)N5)NC4=O)cc3)C(O)C2O)C(O)C(O)C1O (stereo not shown) [Example 283a]	MIC Staphylococcus aureus (GC 4545) (Staphylococcus sp.): 64 µg/mL (≈ 47.4 µM); MIC Staphylococcus aureus (GC 4545) (Staphylococcus sp.; broth dilution): 64 µg/mL (≈ 47.4 µM); MIC Staphylococcus aureus-SMITH (GC 4543) (Staphylococcus sp.): 64 µg/mL (≈ 47.4 µM); MIC Staphylococcus aureus-SMITH (GC 4543) (Staphylococcus sp.; broth dilution): 64 µg/mL (≈ 47.4 µM); MIC Staphylococcus haemolyticus (GC 4546) (Staphylococcus sp.): 64 µg/mL (≈ 47.4 µM); MIC Staphylococcus haemolyticus (GC 4546) (Staphylococcus sp.; broth dilution): 64 µg/mL (≈ 47.4 µM); MIC Enterococcus faecium (GC 4557) (Enterococcus sp.): 64 µg/mL (≈ 47.4 µM); MIC Escherichia coli (GC 4560) (Escherichia coli): 32 µg/mL (≈ 23.7 µM)
16 (≈ 11.7 µM)	16 (≈ 11.7 µM)	8 (≈ 5.86 µM)	8 (≈ 5.86 µM)	16 (≈ 11.7 µM)	16 (≈ 11.7 µM)	32 (≈ 23.4 µM)	32 (≈ 23.4 µM)	32 (≈ 23.4 µM)	32 (≈ 23.4 µM)	32 (≈ 23.4 µM)	32 (≈ 23.4 µM)	32 (≈ 23.4 µM)	32 (≈ 23.4 µM)	32 (≈ 23.4 µM)	32 (≈ 23.4 µM)	32 (≈ 23.4 µM)	32 (≈ 23.4 µM)	32 (≈ 23.4 µM)	32 (≈ 23.4 µM)	CC(C)CC(=O)OCC1OC(OC2C(CO)OC(Oc3ccc(CC4NC(=O)C(Cc5ccccc5)NC(=O)CNC(=O)C(CO)NC(=O)C(C(O)C5CNC(=N)N5C5OC(CO)C(O)C(O)C5O)NC(=O)C(C(O)C5CNC(=N)N5)NC4=O)cc3)C(O)C2O)C(O)C(O)C1O (stereo not shown) [Example 283c, Cyclo[glycylphenylalanyl-O-[4-O-[6-O-(3-methylbutanoyl)-hexopyranosyl]hexopyranosyl]tyrosyl-3-(2-iminoimidazolidin-4-yl)seryl-3-(3-hexopyranosyl-2-iminoimidazolidin-4-yl)serylseryl]]	MIC Staphylococcus aureus (GC 3053) (Staphylococcus sp.): 64 µg/mL (≈ 46.9 µM); MIC Staphylococcus aureus (GC 3053) (Staphylococcus sp.; broth dilution): 64 µg/mL (≈ 46.9 µM); MIC Staphylococcus aureus (GC 4545) (Staphylococcus sp.): 16 µg/mL (≈ 11.7 µM); MIC Staphylococcus aureus (GC 4545) (Staphylococcus sp.; broth dilution): 16 µg/mL (≈ 11.7 µM); MIC Staphylococcus aureus-SMITH (GC 4543) (Staphylococcus sp.): 16 µg/mL (≈ 11.7 µM); MIC Staphylococcus aureus-SMITH (GC 4543) (Staphylococcus sp.; broth dilution): 16 µg/mL (≈ 11.7 µM); MIC Staphylococcus haemolyticus (GC 4546) (Staphylococcus sp.): 16 µg/mL (≈ 11.7 µM); MIC Staphylococcus haemolyticus (GC 4546) (Staphylococcus sp.; broth dilution): 16 µg/mL (≈ 11.7 µM); MIC Enterococcus faecium (GC 4557) (Enterococcus sp.): 16 µg/mL (≈ 11.7 µM); MIC Escherichia coli (GC 4560) (Escherichia coli): 8 µg/mL (≈ 5.86 µM)
